{
  "source": "patent US20250268959A1",
  "about": "“COMPOSITIONS CONTAINING INDOLE-DERIVED METABOLITES AND METHODS OF USE THEREOF” (Imvela Corp., priority 2024, published 2025)",
  "key": {"AhR [1]": {"target": "T1, AhR (Canis lupus familiaris, UniProt A0A8I3RSX6)", "T1 sequence (A0A8I3RSX6 1-853)": "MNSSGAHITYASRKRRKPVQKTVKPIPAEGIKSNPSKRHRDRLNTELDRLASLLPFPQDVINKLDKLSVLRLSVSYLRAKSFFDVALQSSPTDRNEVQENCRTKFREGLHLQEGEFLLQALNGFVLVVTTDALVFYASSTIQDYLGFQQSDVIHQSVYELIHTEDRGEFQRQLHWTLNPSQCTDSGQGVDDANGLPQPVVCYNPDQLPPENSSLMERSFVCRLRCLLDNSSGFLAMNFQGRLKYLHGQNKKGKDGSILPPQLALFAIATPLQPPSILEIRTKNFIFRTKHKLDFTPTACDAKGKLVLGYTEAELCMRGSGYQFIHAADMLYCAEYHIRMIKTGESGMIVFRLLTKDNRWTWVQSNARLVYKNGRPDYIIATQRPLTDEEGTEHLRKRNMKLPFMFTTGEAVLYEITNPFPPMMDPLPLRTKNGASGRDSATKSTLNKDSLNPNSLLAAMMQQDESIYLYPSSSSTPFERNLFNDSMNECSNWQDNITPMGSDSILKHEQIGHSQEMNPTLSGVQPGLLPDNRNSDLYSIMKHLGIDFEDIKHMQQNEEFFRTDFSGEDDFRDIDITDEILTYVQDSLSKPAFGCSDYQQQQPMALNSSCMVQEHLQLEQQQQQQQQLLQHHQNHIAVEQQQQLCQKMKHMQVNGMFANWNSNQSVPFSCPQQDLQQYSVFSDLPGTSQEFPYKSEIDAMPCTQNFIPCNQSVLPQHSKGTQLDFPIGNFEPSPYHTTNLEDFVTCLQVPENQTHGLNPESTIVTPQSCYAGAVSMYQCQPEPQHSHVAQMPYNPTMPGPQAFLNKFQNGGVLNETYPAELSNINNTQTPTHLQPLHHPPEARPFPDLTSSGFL", "assay": "AhR activation, in vitro luminescence assay in canine cell lines expressing AhR", "type": "cell-based", "settings": "canine cell line expressing AhR; 200 μM; normalized to methylcholanthrene (FIG. 5)", "protocol": "(§1) The utility of ILA and IAld in multiple host was validated by an in vitro assay. Human or canine cell lines expressing AhR were exposed to ILA or IAld at 200 μM, and AhR activation was assayed using in vitro luminescence."}, "AhR [2]": {"target": "T2, AhR (Homo sapiens, UniProt P35869)", "T2 sequence (P35869 11-848)": "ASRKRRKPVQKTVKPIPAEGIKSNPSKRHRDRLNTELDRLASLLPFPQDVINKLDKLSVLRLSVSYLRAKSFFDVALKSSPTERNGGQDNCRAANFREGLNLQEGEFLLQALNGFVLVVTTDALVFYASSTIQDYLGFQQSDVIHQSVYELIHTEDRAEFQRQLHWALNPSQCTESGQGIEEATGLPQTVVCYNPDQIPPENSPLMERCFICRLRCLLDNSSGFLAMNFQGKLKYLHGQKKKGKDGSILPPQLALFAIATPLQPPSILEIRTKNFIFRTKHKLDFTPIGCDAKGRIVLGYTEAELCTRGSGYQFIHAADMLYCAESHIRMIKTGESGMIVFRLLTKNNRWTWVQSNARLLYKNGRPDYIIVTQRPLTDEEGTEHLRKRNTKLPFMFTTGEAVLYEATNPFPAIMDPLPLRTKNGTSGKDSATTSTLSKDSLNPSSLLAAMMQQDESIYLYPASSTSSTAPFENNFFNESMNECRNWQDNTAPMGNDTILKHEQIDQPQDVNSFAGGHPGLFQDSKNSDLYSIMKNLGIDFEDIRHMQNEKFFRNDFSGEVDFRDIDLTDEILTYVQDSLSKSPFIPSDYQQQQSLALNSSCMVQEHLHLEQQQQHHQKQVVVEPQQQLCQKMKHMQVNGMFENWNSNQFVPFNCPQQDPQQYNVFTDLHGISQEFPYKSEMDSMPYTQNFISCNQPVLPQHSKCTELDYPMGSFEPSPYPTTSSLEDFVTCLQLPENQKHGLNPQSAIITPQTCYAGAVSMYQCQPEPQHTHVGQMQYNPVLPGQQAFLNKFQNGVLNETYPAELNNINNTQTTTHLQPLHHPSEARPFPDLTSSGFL", "assay": "AhR activation, in vitro luminescence assay in human cell lines expressing AhR", "type": "cell-based", "settings": "human cell line expressing AhR; 200 μM; normalized to methylcholanthrene (FIG. 5)", "protocol": "as §1"}, "[3]": {"settings": "mice; IPA supplementation; in 2 weeks; cited from earlier work"}, "[4]": {"settings": "rats; IPA supplementation; over 1 week; cited from earlier work"}},
  "note": "Where two headings read alike, the source gives them in different places.",
  "data": [
    {"molecule": "O=C(O)C(O)Cc1c[nH]c2ccccc12", "note": "(stereo not drawn) [ILA, indole-3-lactic acid]", "values": [
      {"measurement": "AhR activation", "setting": "AhR [1]", "result": "AhR activation was observed"},
      {"measurement": "AhR activation", "setting": "AhR [2]", "result": "AhR activation was observed"}
    ]},
    {"molecule": "O=C(O)CCc1c[nH]c2ccccc12", "note": "[IPA, indole-3-propionic acid]", "values": [
      {"measurement": "reduction of weight gain", "setting": "[3]", "result": "~60", "unit": "%"},
      {"measurement": "reduction of weight gain", "setting": "[4]", "result": "~50", "unit": "%"}
    ]},
    {"molecule": "O=Cc1c[nH]c2ccccc12", "note": "[IAld, indole-3-carboxaldehyde]", "values": [
      {"measurement": "AhR activation", "setting": "AhR [1]", "result": "AhR activation was observed"},
      {"measurement": "AhR activation", "setting": "AhR [2]", "result": "AhR activation was observed"}
    ]}
  ]
}
